Data set [1] is described as follows: Fluorescence (emission) measurements.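 As to all read-outs here: fluorescence emission spectra recorded on a spectrofluorometer, with each compound excited at its own absorption maximum.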 Type of data set: physicochemical. Conditions: for maximum emission wavelength (λem): 50:50 ACN/PBS, excitation at λabs.
Method: The fluorescence spectrum of each derivative (150 μL) was measured on a Photon Technology International (PTI) QuantaMaster™ 40 fluorescence spectrometer by excitation at the maximum absorption wavelength for each compound.
The fluorescence spectrum of each derivative (150 μL) was measured on a Photon Technology International (PTJ) QuantaMaster™ 40 fluorescence spectrometer by excitation at the maximum absorption wavelength for each compound.
Data set [2] in a line: Solvatochromic measurements. It is filed as physicochemical. The conditions noted are these: organic solvents of different polarity. The method, then: The remaining 850 μL solution was used to obtain fluorescence images under a handheld 365 nm UV lamp.
Solvatochromic measurements. […] The remaining 850 μL solution was used to obtain fluorescence images under a handheld 365 nm UV lamp.

A short description of data set [3]: Absorbance measurements (UV-Vis). Conditions: for Absorbance Wavelength: ACN:PBS buffer (50:50 v/v).
The nature of data set [4]: Fluorescent quantum yield (QY) measurements. It is filed as physicochemical. Conditions: for Fluorescence QY: ACN/PBS buffer (1:1 v/v); for Fluorescence quantum yield: in ACN. The method, then: For each QY measurement, the incident excitation light spectrum was collected with 1 mL of solvent. […] Using the JASCO Quantum Yield Software, the dye QY was calculated by dividing the dye fluorescence intensity by the difference in incident light intensity in the presence and absence of dye. The minimum excitation wavelength for a full excitation incident spectrum using this setup is 360 nm.
Fluorescent quantum yield (QY) measurements. For each QY measurement, the incident excitation light spectrum was collected with 1 mL of solvent. After measuring the incident light intensity, dye (3 and 5a-5k) was added to the solvent from a concentrated stock solution to a final concentration of […] and the new spectrum (fluorescence intensity and new incident light intensity) was collected. Using the JASCO Quantum Yield Software, the dye QY was calculated by dividing the dye fluorescence intensity by the difference in incident light intensity in the presence and absence of dye. The minimum excitation wavelength for a full excitation incident spectrum using this setup is 360 nm.

Data set [5] is described as follows: Molar absorptivity determination.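 Also: molar absorptivity derived from UV-Vis absorbance spectra recorded for each derivative on a spectrometer.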 It is filed as physicochemical.
Method: The absorbance spectrum of each derivative (150 μL) was measured on a Thermo Scientific Genesys 150 UV-Vis spectrometer, using 50:50 ACN/PBS as a blank.
Molar absorptivity determination. […] The absorbance spectrum of each derivative (150 μL) was measured on a Thermo Scientific Genesys 150 UV-Vis spectrometer, using 50:50 ACN/PBS as a blank.
The nature of data set [6]: Fluorescence lifetime measurements (TCSPC). Type of data set: physicochemical. The conditions noted are these: for Fluorescence Lifetime: ACN/PBS buffer (1:1 v/v); for Lifetime: ACN/PBS buffer (50:50 v/v), excitation 340 nm. The method, then:
Time correlated single photon counting (TCSPC) measurements of fluorescence lifetime decays for 100 μM solutions of dyes (6, 7c, 7e, 7f, and 7g) in ACN/PBS buffer (50:50 v/v) were collected with the PTI Quantamaster™ 40 using a pulsed LED with a maximum emission at 340 nm. Fluorescence emission was collected at the indicated wavelength for each dye with 20 nm slit widths. The instrument response function (IRF) was collected under identical conditions. Data analysis was performed with FluoFit software (PicoQuant GmbH; Berlin, Germany) using an exponential decay model.
Fluorescence lifetime measurements. Time correlated single photon counting (TCSPC) measurements of fluorescence lifetime decays for 100 μM solutions of dyes (3 and 5c-f) in ACN/PBS buffer (50:50 v/v) were collected with the PTI Quantamaster™ 40 using a pulsed LED with a maximum emission at 340 nm. Fluorescence emission was collected at the indicated wavelength for each dye with 20 nm slit widths. The instrument response function ([…]) was collected under identical conditions. Data analysis was performed with FluoFit software (PicoQuant GmbH; Berlin, Germany) using an exponential decay model. […] FIG. 64D Fluorescence spectra of 5i-5k. […] Fluorescence spectra were measured at their maximum absorption wavelength. FIGS. 66A-66K show representative QY acquisitions of 3 and 5a-f, 5h-k in ACN/PBS buffer (50:50). All had consistent excitation (360 nm) and spectral collection (350-800 nm) parameters. Final concentration of the probe is 500 μM. Black line indicates incident light and blue line indicates sample spectrum. […] All had consistent excitation (360 nm, slit width 10 nm) and spectral collection (350-800 nm) parameters. Final concentration of the probe is 500 µM. Black line indicates incident light and blue line indicates sample spectrum. FIG. 68: Effect of pH on absorption and emission of 5h and 5j. […] For pH screening of 5h and 5j, PBS buffer solutions were prepared, then adjusted the pH 2, 4, and 7 by adding 6 M hydrochloric acid, pH 9 and 11 by adding 5 M sodium hydroxide. Emission spectra were measured by the excitation wavelength 354 nm for 5h and 385 nm for 5j. […] Lifetime measurements with exponential fits shown at left and residuals after fitting shown at right.

A short description of data set [7]: pH measurements (absorption and emission). Type of data set: physicochemical. Conditions: pH 2-11. The method, then: 10 mM stock solutions of 7h, 7j, and 7k in DMSO were individually diluted into ACN/PBS buffer (50:50 v/v) having different pH ranging from pH 2-11 with 25 μM (500 μL) of final concentration. For pH screening of 7h and 7j, PBS buffer solutions were prepared, then adjusted the pH 2, 4, and 7 by adding 6 M hydrochloric acid, pH 9 and 11 by adding 5 M sodium hydroxide. For pH screening of 7k, pH 4.4 and 7.4 were prepared by citric acid/phosphate buffer. Then, the absorption and fluorescence spectra were recorded by using Thermo Scientific Genesys 150 UV-Vis spectrometer, followed by PTI QuantaMaster™ 40 fluorescence spectrometer by excitation with maximum absorption wavelength.
pH measurements. 10 mM stock solutions of 5h and 5j in DMSO were individually diluted into ACN/PBS buffer (50:50 v/v) having different pH ranging from pH 2-11 with 25 µM (500 μL) of final concentration. For pH screening of 5h and 5j, PBS buffer solutions were prepared, then adjusted the pH 2, 4, and 7 by adding 6 M hydrochloric acid, pH 9 and 11 by adding 5 M sodium hydroxide. Then, we have recorded the absorption and fluorescence spectra by using Thermo Scientific Genesys 150 UV-Vis spectrometer, followed by PTI QuantaMaster™ 40 fluorescence spectrometer by excitation with maximum absorption wavelength.

Data set [8] deals with T1, αS fibrils (Homo sapiens, UniProt P37840).
T1 construct: intein-His6 (C, cleaved yes); made in house; host or cells: Escherichia coli BL21
As to the kind of experiment: Fluorescence spectra with αS fibrils. Type of data set: binding. As for the experimental part:
Fluorescence measurements were performed using a PTI QuantaMaster™ 40 fluorescence spectrometer. Fluorescence spectra of 10 μM probes (concentrated stock solution prepared as 10 mM in DMSO) (7b, 7c, 7d, 7e, 7f, 7g and 7h) in PBS buffer were measured by excitation at their absorbance maximum wavelength in the absence and presence of 50 μM αS fibrils (stock solution 100 μM αS fibrils in PBS buffer).
Fluorescence spectra with αS fibrils. Fluorescence measurements were performed using a PTI QuantaMaster 40 fluorescence spectrometer. Fluorescence spectra of 10 μM probes (concentrated stock solution prepared as 10 mM in DMSO) (5b-5f and 5h) in PBS buffer were measured by excitation at their absorbance maximum wavelength in the absence and presence of 50 μM αS fibrils (stock solution 100 μM αS fibrils in PBS buffer). […] FIGS. 77A-77F show fluorescence spectra of probes (5b-5f and 5h) with and without αS fibrils. Final concentrations of probes and αS fibrils were 10 μM and 50 μM, respectively. Emission spectra collected at each dye's maximum absorption wavelength. Ex/Em slit widths: 3 nm/3 nm. […] Absorbance is shown in FIG. 78A and FIG. 78B, whereas FIG. 78C and FIG. 78D show excitation spectra of probes 5j and 5k with and without αS fibrils. Final probe and fibrils concentrations were 10 μM and 50 μM, respectively. […] Emission wavelengths were 575 nm for 5j, 580 nm for 5k. Ex/Em slit widths: 3 nm/3 nm. […] Black line indicates incident light (αS fibrils without probe) and blue line indicates sample (αS fibrils with probe). Excitation at λexc=435 nm for 5j and λexc=463 nm for 5k and spectral collection (400-800 nm). Final concentrations of the probe and αS fibrils are the 100 μM. Ex/Em slit widths: 5 nm/5 nm.

Data set [9] concerns the target T1, αS fibrils. As to the kind of experiment: Competition binding with ThT on αS fibrils.
Setting [10] is: 25 μM in ACN/PBS buffer (1:1 v/v), pH 7.4.
Setting [11] is: ACN/PBS buffer (1:1 v/v), pH 7.4.
[12] abbreviates: in ACN, at maximum absorption wavelength.

As to `COP(=O)(Cc1c(C)c(=O)n2c(=O)c(C)c(C)n12)OC` [Compound 6, dimethyl ((2,5,6-trimethyl-1,7-dioxo-1H,7H-pyrazolo[1,2-a]pyrazol-3-yl)methyl)phosphonate], the “Emission λmax” value in data set [1] (25 μM in ACN) is recorded as 432 nm; in data set [1] (setting [10]), 464 nm. Further, the “Emission λem” value in [1] (25 μM in ACN, Table S12) came out at 432 nm. Moreover, the “maximum emission wavelength (λem)” value in [1] was found to be 464 nm. The Stokes shift in data set [1] (ACN/PBS buffer (1:1 v/v)) is given as 80 nm; in [1] (in ACN), 57 nm. The “solvatochromism / environmental sensitivity” value in [2] is reported as “no significant environmental sensitivity”. Further, the “Absorbance λmax” value stood at 375 nm in data set [3] (25 μM in ACN) and 384 nm in [3] (setting [10]). Moreover, the “Fluorescence QY” value in data set [4] came to 64.6%. The Fluorescence quantum yield in data set [4] and in [4] (Table S12) was 77.7% throughout. Further, in [4] (in ACN/PBS), the “fluorescence quantum yield (QY)” value came out at 64.6%. In addition, the “Molar Absorptivity (ε)” value in data set [5] (setting [11]) is 7902 M⁻¹ cm⁻¹; in data set [5] (setting [12]), 6121 M⁻¹ cm⁻¹. In [6] (ACN/PBS), this molecule showed a fluorescent lifetime of 2.32 ns. The “Fluorescence Lifetime” value in data set [6] is 2.32 ns. The Lifetime in data set [6] (Table 4) and in data set [6] (Table S13) was 2.32 ± 0.01 ns in each case.
As for `Cc1c(C)n2c(/C=C/c3ccc(O)cc3)c(C)c(=O)n2c1=O` [Compound 7h, (E)-3-(4-hydroxystyryl)-2,5,6-trimethyl-1H,7H-pyrazolo[1,2-a]pyrazole-1,7-dione], the “Emission λmax” value in [1] (setting [10]) is 506 nm. Moreover, the “maximum emission wavelength (λem)” value in [1] was 505 nm. The Stokes shift in data set [1] (ACN/PBS buffer (1:1 v/v)) amounted to 152 nm; in data set [1] (in ACN), 144 nm. The “pH effects on absorption and emission” value in data set [7] was “red-shifted absorption at pH 11 with a reduced QY, but no shift in emission”. Besides, the results for the “Absorbance λmax” value in data set [3] (25 μM in ACN) and in data set [3] (setting [10]) were 342 nm and 354 nm, respectively. Moreover, the “Absorbance Wavelength” value is given as 348 nm in [3] (Table 11) and 354 nm in [3] (Table S14). Besides, in data set [4], the “Fluorescence QY” value was found to be 2.3%. The Fluorescence quantum yield in data set [4] and in [4] (Table S12) was 3.1% throughout. For the same molecule, the “Molar Absorptivity (ε)” value in data set [5] (setting [11]) stood at 31514 M⁻¹ cm⁻¹; in [5] (setting [12]) it was 29910 M⁻¹ cm⁻¹.
In the case of `Cc1c(C)n2c(/C=C/c3ccccc3)c(C)c(=O)n2c1=O` [Compound 7e, (E)-2,3,6-trimethyl-5-styryl-1H,7H-pyrazolo[1,2-a]pyrazole-1,7-dione], the “Emission λmax” value in [1] (setting [10]) was determined as 503 nm. Besides, the Stokes shift in data set [1] (ACN/PBS buffer (1:1 v/v)) is recorded as 182 nm; in data set [1] (in ACN), 176 nm. Moreover, the “solvatochromism / environmental sensitivity” value in data set [2] is reported as “no significant solvatochromism”. The “Absorbance λmax” value was 316 nm in data set [3] (25 μM in ACN) and 321 nm in [3] (setting [10]). The same molecule showed a λabs in data set [3] (ACN/PBS) of 321 nm. The “Absorbance Wavelength” value in data set [3] (Table 11) and in [3] (Table S14) was 321 nm in each case. Further, in data set [4], the “Fluorescence QY” value is reported as 2.5%. For the same molecule, the Fluorescence quantum yield in data set [4] and in [4] (Table S12) was 3.1% each time. Further, the entries for the “Molar Absorptivity (ε)” value in data set [5] (setting [11]) and in [5] (setting [12]) were 23959 M⁻¹ cm⁻¹ and 32724 M⁻¹ cm⁻¹, respectively. In [6], the “Fluorescence Lifetime” value was 1.02 ns. The Lifetime in data set [6] (Table 4) and in data set [6] (Table S13) was 1.02 ± 0.004 ns throughout.
For the molecule “(E)-3-(4-(dimethylamino)styryl)-2,5,6-trimethyl-1H,7H-pyrazolo[1,2-a]pyrazole-1,7-dione [Compound 7l]”, the “concentration-dependent shift in the emission maximum with αS fibrils” value at αS fibrils [8] is on record as “binding at limited sites with high affinity”. The “Absorbance Wavelength” value in data set [3] (Table 11) is on record as 385 nm. For the same molecule, at αS fibrils [9], the “competition with ThT on αS PFFs” value is “displacement of the known amyloid-binding dye ThT”.

For the origin of these results see patent US20240336617A1, “Substituted Bimane Compounds and Methods of Use Thereof” (THE TRUSTEES OF THE UNIVERSITY OF PENNSYLVANIA, priority 2023, published 2024).
